Consider one compound from patent US20110195911A1, “SYNTHETIC ANALOGS OF THE JUXTAMEMBRANE DOMAIN OF IGF1R AND USES THEREOF” (THE UNITED STATES OF AMERICA,AS REPRESENTED BY THE …, priority 2008, published 2011).

Where a SMILES comes first, the peptide text is derived from it. [ ]: non-standard residue; d: D form. The star is where a group is joined. Palmitoyl = CCCCCCCCCCCCCCCC(=O)*

The subject of experiment [1] is MCF-7 breast cancer cells. Put plainly: MTT cell toxicity assay in MCF-7 breast cancer cells. The format is cell-based. The conditions noted are these: MCF-7 cells, MTT. Summed up:
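MCF-7 cells seeded in 1% FBS medium, grown 24 h, then exposed to compounds at 0.1, 0.5, 2.5 or 5.0 μM (final, 0.5% FBS) for 48 h. MTT absorbance at 544 nm; growth relative to time-zero and untreated controls gave GI50 (50% growth inhibition) and TGI (zero net growth).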
Background: Tetrazolium assays rely on reduction of a dye to a coloured formazan, in cell work by metabolically active cells.

The test system of a further experiment is AKT kinase. Put plainly: OMNIA fluorogenic AKT kinase activity assay in lysates of IGF-1-stimulated MCF-7 cells, FIG. 3. The format is cell-based. The conditions noted are these: MCF-7 stimulated with IGF-1, inhibitor 0 to 0.5 μM to 2.5 μM. The procedure:
AKT Kinase Assay: OMNIA™ fluorogenic AKT Kinase Activity Assay Kit (BioSource through Invitrogen) was used for the measurement of AKT activity in cell lysates. To prepare for the cell treatment, MCF-7 cells were seeded into four wells on a six-well plate in RPMI medium. The medium was supplemented with 10% Fetal Bovine Serum to aid the cell attachment. The cells were incubated for 24 hours, after which time the 10% serum medium was aspirated and replaced with 2 mL of no-serum medium. The cells were starved overnight to stop the signaling from the FBS. On the third day, the medium was replaced and different dilutions of peptide diluted in no-serum medium was added to the four wells. Well 1 & 2 had 0.0 μM of 18, well 3 0.5 and well 4 2.5 μM.
The cells were placed on ice briefly to aid in detaching and then scraped from the bottom of the wells and rinsed with cold PBS. The cells suspended in PBS were collected and centrifuged for 5 minutes at 1500 rpm at 4° C. and the medium aspirated. […]
Master mix AKT fluorogenic substrate was prepared according to the protocol provided by BioSource. […] The fluorescence was excited at 360 nm and read at 485 nm for a length of 60 minutes every thirty seconds on a FLUOstar/POLARstar Galaxy (BMG Lab Technologies GmbH) microplate reader. […]

Usually TGI stands for the concentration giving total growth inhibition. On to `CCCCCCCCCCCCCCCC(=O)NCCCC[C@@H](NC(=O)[C@@H](CCCNC(=N)N)NC(=O)[C@@H](CC(N)=O)NC(=O)[C@@H](CC(N)=O)NC(=O)[C@@H](CO)NC(=O)[C@@H](CCCNC(=N)N)NC(=O)[C@@H](CC(C)C)NC(=O)CNC(=O)[C@@H](CC(N)=O)NC(=O)CNC(=O)[C@H](NC(=O)[C@@H](CC(C)C)NC(=O)[C@@H](Cc1ccc(O)cc1)NC(C)=O)C(C)C)C(N)=O` [Peptide 18, Ac-YLVGNGLRSNNRK-(ε-Pal)] (Ac-[dY][dL][dV]G[dN]G[dL][dR][dS][dN][dN][dR][dK](Palmitoyl)-NH2; C-terminus assumed), for which, in experiment [1] (final 0.5% FBS, two days with compound, concentration of total growth inhibition (cytostatic)), the TGI came out at 400 ± 20 nM. Also, the “growth inhibition / potency in MCF-7 cells (in words)” value in experiment [1] (comparison with related peptides) is “increased the potency”. Moreover, in the experiment with AKT kinase, the AKT enzyme activity result is “decreased to undetectable levels”.
